Experiments:
H4IIE cells [1] = test: Cell number (propidium iodide); assay type: cell-based, rat
Protocol: (§1) One test compound (Compound A) was received as dry powder and evaluated for potential cytotoxicity in a battery of in vitro assays. The compound was tested using both rat cardiomyocytes (CM) from rat neonates and a rat hepatoma (H4IIE) cell line. […] The cell supernatant or the cells themselves were harvested for biochemical analysis. General cytotoxicity was evaluated by monitoring membrane integrity, mitochondrial function, cell proliferation, oxidative stress, and apoptosis. In addition, interaction with P-glycoprotein (PgP) on H4IIE cells and solubility of the test compound were also assessed. The means of each exposure group (n=3-7) were calculated for each assay performed.
(§2) Experimental Protocol: The test compound was provided and stored at 4° C. until needed. Dosing solutions were prepared in complete culture medium. The rat hepatoma (H4IIE) cell line was used as the test system.
Cell Proliferation: Cell proliferation in each well was measured with propidium iodide (PI). This specific nucleic acid binding dye fluoresces when intercalated within the nucleic acids. The 15 nm shift enhances PI fluorescence approximately 20 times while the excitation maxima are shifted 30-40 nm. During method development experiments, it was determined that Triton-X-100 was the best solution to permeabilize the H4IIE cells thereby allowing the PI access to intracellular RNA and DNA. Fluorescence was measured using a Packard Fusion plate reader or equivalent reader at 540 nm excitation and 610 nm emission.
Cell Proliferation: After incubation, the test compound was removed and Triton X-100 solution containing propidium iodide is added. The plate was incubated and read on a fluorescent plate reader. Data was collected as relative fluorescent units (RFU). The blank was subtracted from the final well RFU. It represents the average of the first and last columns which contain no cells on that particular plate. The controls are untreated cells allowed to grow on the same plate. The compounds are represented by several separate RFU data points for each of the tested concentrations. The percent change relative to controls was calculated by dividing the average RFU by the control cell RFU and multiplying by 100.

rat cardiomyocytes [2] = test: MemTox membrane leakage (AK / α-GST); assay type: cell-based
Protocol: as §1
(§3) Membrane Leakage (α-Glutathione S-transferase and/or Adenylate Kinase): The presence of Adenylate Kinase (AK) or α-Glutathione S-transferase (α-GST), both enzyme leakage markers, was measured in the culture medium using an activity assay for Adenylate Kinase and/or an ELISA assay for α-GST. At the end of the exposure period, the medium covering the cells in each well was removed and placed into new 96-well plates with appropriate labeling. […] Luminescence (AK) values were measured with a Packard Fusion or equivalent plate reader, and absorbance (α-GST) values were measured with a Packard SpectraCount™ or equivalent reader at 450 nm and reference absorbance at 650 nm.
(§4) Membrane Leakage (α-Glutathione S-transferase and/or Adenylate Kinase): Leakage of Adenylate Kinase or α-GST from the cell into the culture medium was determined by collecting the culture medium at the end of the exposure period. Thus, the values measured represent total enzyme leakage lost over the exposure period. The control for 100% dead or maximum enzyme release was based on cells treated with 1 mM digitonin at the time of dosing. Percent dead cells relative to digitonin treated cells was determined and then subtracted from 100% to yield the percent live cells.

H4IIE cells [3] = test: MemTox membrane leakage (AK / α-GST); assay type: cell-based, rat
Protocol: as §1, §2, §3, §4

rat cardiomyocytes [4] = test: MTT reduction; assay type: cell-based
Protocol: as §1
(§5) Tetrazolium Dye Reduction: 3-[4,5-dimethylthiazol-2-yl]

H4IIE cells [5] = test: MTT reduction; assay type: cell-based, rat
Protocol: as §1, §2, §5

rat cardiomyocytes [6] = test: Intracellular ATP levels; assay type: cell-based
Protocol: as §1
(§6) Intracellular ATP Levels: Cellular Adenosine triphosphate (ATP) was determined with an assay based on a reaction between ATP+D-luciferin+oxygen catalyzed by luciferase to yield Oxyluciferin+AMP+PPi+CO2+light. The emitted light is proportional to the amount of ATP present. […] In addition, a unique cell lysis reagent inhibits endogenous ATPases and therefore stabilizes cellular ATP by preventing its degradation to ADP. ATP is present in all-living cells and declines rapidly upon cell death. In addition, this assay in combination with the MTT assay provides an indicator of mitochondrial activity and energy status of the cell.
(§7) Plates were analyzed immediately or stored at −20° C. until needed. On the day of analysis, the plates were thawed and calibration curve prepared with ATP in the same liquid matrix as samples. ATP was quantified by adding ATP substrate solution and then reading luminescence on a Packard Fusion Luminescence or equivalent plate reader.
(§8) Intracellular ATP Levels: ATP levels in treated cells could be determined by using the regression coefficients obtained from the linear regression analysis of the calibration curve. Thus, values could be expressed as pmoles ATP/million cells. Background corrected luminescence was used to determine percent change relative to controls by dividing treated values by control values and multiplying by 100.

H4IIE cells [7] = test: Intracellular ATP levels; assay type: cell-based, rat
Protocol: as §1, §2, §6, §7, §8

rat cardiomyocytes [8] = test: Intracellular total glutathione (GSH); assay type: cell-based
Protocol: as §1

H4IIE cells [9] = test: Intracellular total glutathione (GSH); assay type: cell-based, rat
Protocol: as §1, §2

rat cardiomyocytes [10] = test: Membrane lipid peroxidation (8-isoprostane ELISA); assay type: cell-based
Protocol: (§9) One test compound (Compound A) was received as dry powder and evaluated for potential cytotoxicity in a battery of in vitro assays. The compound was tested using both rat cardiomyocytes (CM) from rat neonates and a rat hepatoma (H4IIE) cell line. […] Camptothecin and rotenone were included as positive control compounds. The cell supernatant or the cells themselves were harvested for biochemical analysis. General cytotoxicity was evaluated by monitoring membrane integrity, mitochondrial function, cell proliferation, oxidative stress, and apoptosis. In addition, interaction with P-glycoprotein (PgP) on H4IIE cells and solubility of the test compound were also assessed. The means of each exposure group (n=3-7) were calculated for each assay performed. Intra assay variation well-to-well was typically less than 10% with plate to plate variation typically less than 20%.

H4IIE cells [11] = test: Membrane lipid peroxidation (8-isoprostane ELISA); assay type: cell-based, rat
Protocol: as §9, §2

P-glycoprotein (PgP) = P-glycoprotein (PgP) binding: MTT with and without cyclosporin A; assay type: cell-based, rat; conditions: H4IIE 24 HR; for % Control (Compound + CSA) / % Control (Compound): MTT, 50 μM; for % Control (Compound + CSA): with cyclosporin A; for % Control (Compound): without CSA
Protocol: Several antiviral drugs are substrates for P-glycoprotein transporter (PgP).
P-glycoprotein (PgP) transport proteins are expressed in the bile canalicular membrane of normal liver. However, in neoplastic cells it is not uncommon to have expression of this transporter system in the plasma membrane. […] The existence of these transporters was evaluated with the Calcein-AM assay and with known substrates of PgP.

[12] = Metabolic stability (LC/MS, parent remaining); assay type: in vitro ADME, rat; conditions: 1 μM, 30 min at 37° C.
Protocol: (§10) Metabolic stability was conducted using pooled microsomes form induced (BNF/PB) male rat (Sprague-Dawley) animals and induced (BNF/PB) male dog (Beagle) animals. The test compounds were incubated for 30 min at 37° C. at concentrations of 1 μM. Subsequent LC/MS analysis measured disappearance of the parent molecule. The data are expressed as percent of parent remaining. Positive controls for highly metabolized compounds were included for comparison.
(§11) Metabolic Stability and Profiling by mass spectrometry: Metabolic stability was conducted using pooled male dog (beagle) microsomes and male rat (Sprague-Dawley) microsomes from induced (beta-Naphthoflavone/Phenobarbital, BNF/PB) animals. The test compounds were incubated for 30 min at 37° C. at concentrations of 1 and 10 μM. Subsequent analysis by mass spectrometry measured disappearance of the parent molecule. The data are expressed as percent of parent remaining. Positive controls for highly metabolized compounds were included for comparison.
(§12) Metabolic Stability: The analysis measured disappearance of the parent molecule. The data were expressed as percent of parent remaining. Positive controls for highly metabolized compounds were included for comparison.

[13] = Metabolic stability (LC/MS, parent remaining); assay type: in vitro ADME, dog; conditions: 1 μM, 30 min at 37° C.
Protocol: as §10, §11, §12

[14] = Metabolic activation (disappearance of GSH); conditions: liver microsomes from Phenobarbital/BNF induced rats
[15] = MemTox membrane leakage (AK / α-GST); assay type: cell-based, rat; conditions: rat
Protocol: as §1, §3, §4

MTT reduction = assay type: cell-based, rat; conditions: rat
Protocol: as §1, §5

Intracellular ATP levels = assay type: cell-based, rat; conditions: rat
Protocol: as §1, §6, §7, §8

H4IIE cells [16] = test: Predicted Ctox from Tox-Panel; assay type: cell-based, rat; conditions: 24 HR, estimated sustained plasma concentration where toxicity would be expected in vivo
Protocol: Once all data for a given cluster of assays are received, the data are analyzed to obtain a detailed profile of the compound's toxicity. For example, most conveniently, the data are collated over a dose response range on a single graph. In such an embodiment, the measurement evaluated for each parameter (i.e., each indicator of cell health) at any given concentration is plotted as a percentage of a control measurement obtained in the absence of the compound. However, it should be noted that the data need not be plotted on a single graph, so long as all the parameters are analyzed collectively to yield detailed information of the effects of the concentration of the compound on the different parameters to yield an overall toxicity profile. As set forth below, this overall toxicity profile will facilitate a determination of a plasma concentration Ctox that is predicted to be toxic in vivo. Ctox represents an estimate of the sustained plasma concentration in vivo that would result in toxicity, such as hepatotoxicity or hematopoietic toxicity.
Studies such as these indicate that a preferred concentration for setting Ctox is the highest concentration at which there is no observed effect on any of the indicators being measured in the cluster analysis, especially a 24-hour cluster analysis. […] It will be apparent that 24 hour assays are more time-effective, and consequently, the 24 hour NOEL/Ctox represents a preferred data point to select as Ctox in a CATS assay. It will also be apparent that, with further time studies, it may be possible to select an equally suitable Ctox at other CATS assay time points (e.g., between 24 and 72 hours, or less than 24 hours).
In certain embodiments, the predicting comprises performing concentration response analyses of measurements from at least three separate assays that are employed in the cluster analysis. For example, in the cell health cluster, such predicting will involve monitoring the concentration response effect of the compound on a first health indicator which monitors cellular replication, a second cell health indicator which monitors mitochondrial function, and a third cell health indicator which monitors membrane integrity. Of course, it is understood that fourth, fifth, sixth or more cell health indicators also may be employed. From these concentration response analyses, the highest concentration of the chemical compound at which a measurable toxic effect of the chemical compound is not observable, i.e. NOEL, is determined and the Ctox is identified as the concentration that correlates to the NOEL. In choosing the concentrations of the compound for analysis, one of skill in the art should devise a dose response regimen which is selected to provide an indication of cell health at concentrations of at least two concentration values higher than the Ctox concentration.
The Ctox (H4IIE) value was developed using 24 hr in vitro toxicity data and was validated by retrospectively evaluating compounds across different classes of drugs in 14-day rat studies in which compounds were administered on a daily basis and pharmacokinetic data was available. […] Thus, Ctox values are only determined for the 24 hr in vitro results. The 6 hr toxicity analyses are typically not performed but are beneficial for interpretation of results when compound toxicity is high (e.g., Ctox≦20 μM).

[17] = Intracellular total glutathione (GSH); assay type: cell-based, rat; conditions: rat
Protocol: as §1

[18] = Intracellular total glutathione (GSH); assay type: cell-based, rat; conditions: rat, Total GSH TC50
Protocol: as §1, §2

Cc1cn([C@H]2C[C@H](N=[N+]=[N-])[C@@H](CO)O2)c(=O)[nH]c1=O [AZT]
CC50 (H4IIE cells [1]): > 300 µM
CC50 (rat cardiomyocytes [2]): > 300 µM
CC50 (H4IIE cells [3]): > 300 µM
CC50 (rat cardiomyocytes [4]): > 300 µM
CC50 (H4IIE cells [5]): > 300 µM
CC50 (rat cardiomyocytes [6]): > 300 µM
CC50 (H4IIE cells [7]): > 300 µM
CC50 (rat cardiomyocytes [8]): > 300 µM
CC50 (H4IIE cells [9]): > 300 µM
Membrane Lipid Peroxidation (rat cardiomyocytes [10]): 0
Membrane Lipid Peroxidation (H4IIE cells [11]): 0
% Control (Compound + CSA) (P-glycoprotein (PgP)): 99.0%
% Control (Compound) (P-glycoprotein (PgP)): 116.6%

Cc1ncc2n1-c1ccc(Cl)cc1C(c1ccccc1F)=NC2 [MIDAZOLAM]
% Parent Remaining Rat Microsomes [12]: 0.0%
% Parent Remaining Dog Microsomes [13]: 0.0%

CC(C)C(=O)Nc1ccc([N+](=O)[O-])c(C(F)(F)F)c1 [flutamide]
reduction in GSH (metabolic activation) [14]: most pronounced effects

CC(C)(C)NC(=O)[C@@H]1CN(Cc2cccnc2)CCN1C[C@@H](O)C[C@@H](Cc1ccccc1)C(=O)N[C@H]1c2ccccc2C[C@H]1O [indinavir]
Cell Number TC50 (H4IIE cells [1]; rat, 24 h): 300 µM
CC50 at 24 h [15]: > 300 µM
MemTox TC50 (H4IIE cells [3]; rat, 24 h): 300 µM
CC50 at 24 h (MTT reduction): > 300 µM
MTT TC50 (H4IIE cells [5]; rat, 24 h): 300 µM
CC50 at 24 h (Intracellular ATP levels): > 300 µM
ATP TC50 (H4IIE cells [7]; rat, 24 h): 300 µM
Predicted Ctox (H4IIE cells [16]): 90 µM
CC50 at 24 h [17]: 71 µM
CC50 at 24 h [18]: 249 µM
% Control (Compound + CSA) (P-glycoprotein (PgP)): 91.3%
% Control (Compound) (P-glycoprotein (PgP)): 106.0%
% Difference (P-glycoprotein (PgP); 1-20% low, 20-50% moderate, 50-100% high PgP interaction): 13.9%

— US7615361B2, “Toxicity screening methods” (Ceetox, Inc., priority 2006, dated 2009)
